Legend:
human TET2 construct = human TET2 construct (Homo sapiens, UniProt Q6N021, A1837G/A1840G/D1704G/D1842G/DEL1471-1702/DEL1708-1833/E1841G/F1706G/N1843S/Q1834G/V1836G); experiment: Determination of TET2 binding by Surface Plasmon Resonance; details: SPR, Biacore T200, 25° C., steady state fit to single site interaction model
Protocol: The human methylcytosine dioxygenase TET2 construct used (1129-2002 with residues 1471-1843 replaced by a 15-residue GS-linker) was expressed in a pET-28a(+)psumo vector with kanamycin resistance and an N-terminal His6 tag, and cloned in Rosetta D3 Escherichia coli competent cells. Transformed cells were cultured overnight in 10 mL of LB media supplied with kanamycin (50 μg/mL), then scaled to 1 L LB medium supplied with kanamycin (50 μg/mL) and grown at 37° C. Once the optical density (OD600) achieved 0.8, protein expression was induced with 0.4 mM isopropyl-β-thiogalactopyranoside (IPTG) overnight at 18° C. Cells were harvested by centrifugation (8,000 rpm, 4° C., 30 min) and the pellet obtained was resuspended in 15 mL of buffer A (50 mM Hepes, 150 mM NaCl, 30 mM imidazole, 2 mM β-mercaptoethanol (pH 8.0) supplemented with Pierce protease inhibitor cocktail (ThermoFisher Scientific)) and lysed by sonication (1 min 40 s: 10 cycles×10 s ON, 30 s OFF, A=35%, T=19° C.) followed by two consecutive centrifugations (8,000 rpm, 4° C., 30 min) to clarify the lysate.
The TET2 protein was purified using an AKTA Start system (GE Healthcare, Uppsala, Sweden) by two-step purification procedure: one His-affinity chromatography followed by a size exclusion chromatography. First, the protein fraction obtained during the lysis (supernatant) was applied to a 5 mL HisTrap HP column (GE Healthcare), washed with buffer A (50 mM Hepes, 150 mM NaCl, 30 mM imidazole, 2 mM […] (pH 8.0)) and the bound protein was eluted with buffer B (50 mM Hepes, 150 mM NaCl, 250 mM imidazole, 2 mM β-mercaptoethanol (pH 8.0)). The eluted protein-containing fractions were pooled and concentrated up to 4 mL for the last purification step: a size exclusion chromatography (HiPrep 16/60 Sephacryl S-100 HR) in 50 mM Hepes, 150 mM NaCl, 2 mM β-mercaptoethanol (pH 8.0). Finally, the mass and purity of the protein were verified by SDS-electrophoresis and mass spectrometry.
The binding of compounds of the examples was determined by Surface Plasmon Resonance (SPR) using a Biacore T200 SPR biosensor instrument (GE Healthcare, Uppsala, Sweden) at 25° C. The human TET2 construct was immobilized on a CM5 sensor chip using a standard covalent immobilization via amine coupling following the activation of the carboxymethyl dextran matrix of the sensor chip (injection of a solution containing 0.1 M N-hydroxysuccinimide and 0.4 M 1-ethyl-3-[3-(dimethylamino)propyl]carbodiimide hydrochloride at a flow rate of 15 μL/min for 7 min). The protein immobilization was achieved after the injection of 5 μg/mL TET2 in 10 mM sodium acetate (pH 4.0) at a flow rate of 5 μL/min. Unreacted activated groups of the dextran matrix were deactivated by injection of 1 M ethanolamine hydrochloride for 7 min at a flow rate of 15 μL/min. The corresponding matrix activation and protein immobilization were performed using as a running buffer a phosphate buffered saline solution (1.05× PBS: 10 mM phosphate, pH 7.4, 150 mM NaCl). The screened compounds were prepared in a 20 mM stock solution in DMSO and diluted with 1.05× PBS to achieve a final 5% (v/v) DMSO concentration. The running buffer of the interaction assays consisted of 1×PBS, 5% (v/v) DMSO. The flow rate used for the screening was 60 μL/min and the ligand association and dissociation times set were 60 s and 120 s, respectively.
For data analysis the software used was the Biacore T200 Evaluation software. Different corrections were applied. First, the nonspecific binding to the chip surface and the baseline drift were corrected subtracting the signals of a reference surface (where the immobilization procedure was carried out without proteins) to the signals obtained on the TET2 surface. Second, a series of solvent standards (solvent correction) were introduced to remove the differences derived from the DMSO. Finally, the background was corrected subtracting blank injections (blank subtraction) to the injected compound signals.

LN229 (glioblastoma) = experiment: Antiproliferative activity on other tumour cell lines (CellTiter-Glo): LN229; format: cell-based; details: Homo sapiens, LN-229; LN229, 72 h of treatment
Protocol: (§1) Other human adherent cancer cell lines were cultured in their corresponding cell medium (as specified in Table 4) supplemented with 10% FBS (v/v) and 1% P/S (v/v). Twenty-four hours prior to treatment with the compounds to be tested (Examples 1, 12 and 21), the cells were seeded in 96-well plates at different densities depending of the cell line (as specified in Table 4).
(§2) Depending on the cell line, a 50, 125 or 250 μM solution of the compounds of examples 1, 12 and 21 were prepared in complete medium, and then serially diluted (1:2) (Table 5). A solution of complete medium with DMSO was used as a vehicle control.
(§3) Fifty microliters of each serially diluted compound solution was added by medium replacement in two wells (by duplicate). After 48 h of treatment, 50 μL of fresh 2X serially diluted compound solution was added to the corresponding wells of the plate (100 μL of final volume/well). After twenty-four additional hours (a total of 72 h of treatment), an equal volume (100 μL) of CellTiter-Glo Reagent (Promega) was added to each well, plates were shaken during 2 min and incubated at rt for 10 min. Luminescence was recorded using a Spark multimode microplate reader and an integration time of 1 s per well.

A375 (melanoma) = experiment: Antiproliferative activity on other tumour cell lines (CellTiter-Glo): A375; format: cell-based; details: Homo sapiens, A-375; A375, 72 h of treatment
Protocol: as §1, §2, §3

MCF7 (breast) = experiment: Antiproliferative activity on other tumour cell lines (CellTiter-Glo): MCF7; format: cell-based; details: Homo sapiens; MCF7, 72 h of treatment
Protocol: as §1, §2, §3

T98G (glioblastoma) = experiment: Antiproliferative activity on other tumour cell lines (CellTiter-Glo): T98G; format: cell-based; details: Homo sapiens, 72 h of treatment
Protocol: as §1, §2, §3

HCT116 (colon) = experiment: Antiproliferative activity on other tumour cell lines (CellTiter-Glo): HCT116; format: cell-based; details: Homo sapiens; HCT 116, 72 h of treatment
Protocol: as §1, §2, §3

Hop62 (lung) = experiment: Antiproliferative activity on other tumour cell lines (CellTiter-Glo): Hop62; format: cell-based; details: Homo sapiens, HOP-62; Hop62, 72 h of treatment
Protocol: as §1, §2, §3

MDA-MB-468 (breast) = experiment: Antiproliferative activity on other tumour cell lines (CellTiter-Glo): MDA-MB-468; format: cell-based; details: Homo sapiens, MD-MB-468, 72 h of treatment
Protocol: as §1, §2, §3

Compound	Kd (human TET2 construct)	EC50 (LN229 (glioblastoma))	EC50 (A375 (melanoma))	EC50 (MCF7 (breast))	EC50 (T98G (glioblastoma))	EC50 (HCT116 (colon))	EC50 (Hop62 (lung))	EC50 (MDA-MB-468 (breast))
Cc1[nH]c2ccccc2c1-c1csc(NC(=O)Cc2cc(Br)cs2)n1 [Example 19, 2-(4-bromothiophen-2-yl)-N-[4-(2-methyl-1H-indol-3-yl)thiazol-2-yl]acetamide]	1 µM							
Cc1[nH]c2ccccc2c1-c1csc(NC(=O)Cc2c[nH]c3ccc(F)cc23)n1 [Example 12, 2-(5-fluoro-1H-indol-3-yl)-N-[4-(2-methyl-1H-indol-3-yl)thiazol-2-yl]acetamide]	6 µM	5.9 µM	2.7 µM	10.3 µM	23.1 µM	6.8 µM	12.1 µM	10.1 µM
Cc1[nH]c2ccccc2c1-c1csc(NC(=O)Cc2c[nH]c3ccccc23)n1 [Example 13, 2-(1H-indol-3-yl)-N-[4-(2-methyl-1H-indol-3-yl)thiazol-2-yl]acetamide]	14 µM							

Results, then the compound that gave them:

Kd (human TET2 construct)	EC50 (LN229 (glioblastoma))	EC50 (A375 (melanoma))	EC50 (MCF7 (breast))	EC50 (T98G (glioblastoma))	EC50 (HCT116 (colon))	EC50 (Hop62 (lung))	EC50 (MDA-MB-468 (breast))	Compound
12 µM								Cc1[nH]c2ccccc2c1-c1nc(NC(=O)Cc2cn3ccsc3n2)sc1C [Example 4, 2-(imidazo[2,1-b]thiazol-6-yl)-N-[5-methyl-4-(2-methyl-1H-indol-3-yl)thiazol-2-yl]acetamide]
7 µM	3.3 µM	1.1 µM	12.9 µM	11.4 µM	16.4 µM	81.6 µM	9.2 µM	Cc1[nH]c2ccccc2c1-c1csc(NC(=O)Cc2c[nH]c3ccc(O)cc23)n1 [Example 21, 2-(5-hydroxy-1H-indol-3-yl)-N-[4-(2-methyl-1H-indol-3-yl)thiazol-2-yl]acetamide]

From patent US20240208998A1, “COMPOUNDS FOR USE IN THE TREATMENT OF HYPERPROLIFERATIVE DISORDERS” (FUNDACIÓ PRIVADA INSTITUT D'INVESTIGACIÓ ONCOLÓGICA DE VALL …, priority 2021, published 2024)
